Columns and labels:
[1] = tested on: human embryonic stem cells (hESC) and induced pluripotent stem cells (iPSC); test: Differentiation of pluripotent stem cells (hESC or iPSC) into cardiomyocytes; format: cell-based; design: key to Amount of cardiomyocytes obtained: (−) No cardiomyocytes obtained; (+)—(+++): Amount of cardiomyocytes obtained; (+)—(+++): Amount of cardiomyocytes obtained; (+)—(+++): Amount of cardiomyocytes obtained; conditions: for Ability to induce cardiomyocyte differentiation: other Wnt inhibitors tested instead of Wnt-C59; for Amount of cardiomyocytes obtained: Experiments I-III
Experimental: (§1) To initialize differentiation, the cells are incubated in insulin-free medium comprising compound 21 (3-(3-Amino-phenyl)-4-(1-methyl-1H-indol-3-yl)-pyrrole-2,5-dione, also referred to as “compound 21” or “CP21” herein; see e.g., Gong et al. (2010) Bioorganic& Medicinal Chemistry Letters 20:1693-1696) to activate the wnt-pathway. The optimal concentration of compound 21 to induce cardiomyocyte differentiation is dependent on the cell density of the pluripotent cells that are attached to the cell vessel. […] This is surprising as prior art protocols require higher concentrations of other modulators of the Wnt pathway for efficient differentiation.
(§2) The optimal concentration was identified at 2 μM. […] In one embodiment, step c) of the differentiation method comprises incubating the cells in a medium comprising 1-10 μM Wnt-C59. In one preferred embodiment step c) of the differentiation method comprises incubating the cells in a medium comprising 2 μM Wnt-C59.
Anthelmintic niclosamide and Pyrvinium were tested for their ability to induce cardiomyocyte differentiation.
Human embryonic stem cells (hESC) or induced pluripotent stem cells (iPSC) were cultured in 56 cm^2 dishes coated with Matrigel (BD Bioscience, Cat. 354277) at 37° C. and 5% CO2 in 10 ml mTeSR1 medium (Stemcell Technologies, Cat. 05850).
To propagate pluripotent stem cells by conserving their pluripotent state, hESC or iPSC were treated with the following: the cells were washed once with 10 ml PBS−/−, and afterwards incubated with 3 ml Accutase (Innovative Cell Technologies, Cat. AT-104) for 2-3 minutes at 37° C. and 5% CO2, to detach the cells.
The enzymatic reaction of Accutase was stopped with 7 ml mTeSR1 and followed by centrifugation of the cells for 3 minutes at 500×g.
The cells were resuspended in 10 ml mTeSR1, and counted. For further cultivation, 2×10^6 cells were plate on 56 cm^2 dishes with fresh coated Matrigel. Further the hESC or iPSC were cultivated in 10 ml mTeSR1 and 10 μM Rock inhibitor, Y-27632 (Millipore, Cat. SCM075) at 37° C. and 5% CO2. Subsequently, 10 ml mTeSR1 medium was changed daily and the pluripotent stem cells were cultivated to a density of 80% before passaging.
For successful differentiation into cardiomyocytes, pluripotent stem cells were plated at high density using 5.5×10^5/cm^2 of hESC or iPSC. Passaging and cultivation were performed as described above for pluripotent stem cells.
After 24 hours (day 1) the hESC or iPSC were washed once with 180 μl/cm^2 PBS−/− and the cultivation medium was changed to 180 μl/cm^2 differentiation medium.
After 24 hours (day 2) incubation with CP21, the cells were washed with PBS−/− as described above and cultivated for 48 hours in 220 μl/cm^2 differentiation medium.
After 48 hours (day 4), the cells were washed with PBS−/− as described above and cultivated for 48 hours in 220 μl/cm^2 differentiation medium comprising 2 μM Wnt-C59 (Cellagen Technology, Cat. C7641-2s, International Patent Application Publication No. WO 20101 01849), a potent Wnt signaling inhibitor, by blocking Wnt secretion.
After 48 hours (day 6), the cells were washed with PBS−/− as described above and cultivated for 48 hours in 220 μl/cm^2 differentiation medium.
After 48 hours (day 8), the cells were washed with PBS−/− as described above and cultivated for 48 hours in 220 μl/cm^2 RPMI medium comprising ascorbic acid, penicillin-streptomycin, but now including B27 plus insulin, minus vitamin A (=expansion medium)
Subsequent medium changes were performed every 48 hours using 220 μl/cm^2 expansion medium.
To test the efficiency of the differentiation process, the cardiomyocytes were characterized at differentiation day 14 by cell immunohistochemistry and Fluorescence Activated Cell Sorting (FACS) using antigens specific to cardiomyocytes.
The protocol as described above was repeated with different CP21 concentrations. The results are shown in Table 1 below: (−) No cardiomyocytes obtained, (+)—(+++): Amount of cardiomyocytes obtained.

[2] = tested on: pluripotent cells (hESC or iPSC); test: Cell viability / cell death during the differentiation protocol; format: cell-based
Experimental: as §1, §2

[3] = tested on: pluripotent stem cell derived cardiomyocytes; test: xCELLigence cardiomyocyte beating analysis; format: cell-based, human
Experimental: Isoproterenol increases the heart rate and myocardial contractility by stimulating cardiac beta-1 receptors. To detect this proarrhythmic effect in the stem cell derived cardiomyocytes, 7×10^4/cm^2 cells were plated on special E-Plate Cardio 96 (Roche, Cat. No. 05232368001) coated with 130 μl/cm^2 0.1% Gelatine for 1 hour at 37° C. After cells attached to the plate and recovered for 2 days as described above, medium was changed to iCell Cardiomyocytes Maintenance Medium (Cellular Dynamics, Cat. No.CMM-100-120-005). Cells were measured using the xCELLigence RTCA Cardio System (Roche Applied Science). 7 days after plating the cells were treated with 3 μM Isoproterenol and measured directly. Each 96-well plate was measured at a resolution of 12.9 ms. The first 3 minutes were measured without interruption and over the next 24 hours the cells were measured every 15 minutes for 1 minute duration. Activation of β-receptors on the heart induces positive chronotropic effects in cardiomyocytes. To confirm that the pluripotent stem cell derived cardiomyocytes respond to β-receptor activation, the cardiomyocytes were incubated with the β-receptor agonist isoproterenol and subsequently analysed using the xCELLigence system.

## O=C(Nc1ccc([N+](=O)[O-])cc1Cl)c1cc(Cl)ccc1O [Anthelmintic niclosamide, niclosamide]
[1]
  Ability to induce cardiomyocyte differentiation: did not result in a successful generation of cardiomyocytes

## Cn1cc(C2=C(c3cccc(N)c3)C(=O)NC2=O)c2ccccc21 [CP21, 3-(3-Amino-phenyl)-4-(1-methyl-1H-indol-3-yl)-pyrrole-2,5-dione]
[2]; After 24 h CP21 incubation
  Cell death after incubation: strong cell death
[2]; step b) of differentiation
  Concentrations showing decreased cell viability: above 5 μM
[1]; Cp21 conc. 0.3 μM
  Amount of cardiomyocytes obtained: −
[1]; Cp21 conc. 1 μM
  Amount of cardiomyocytes obtained: +
[1]; Cp21 conc. 2 μM
  Amount of cardiomyocytes obtained: ++ and +++
[1]; Cp21 conc. 3 μM
  Amount of cardiomyocytes obtained: ++ and +
[1]; Cp21 conc. 5 μM
  Amount of cardiomyocytes obtained: + and −
[1]; Cp21 conc. 10 μM
  Amount of cardiomyocytes obtained: −
[1]; cell density 5.5×10^5/cm^2, tested 0-10 μM at 1.8-11×10^5/cm2 hESC or iPSC
  Concentration resulting in the most efficient differentiation of pluripotent stem cells into cardiomyocytes: 2 µM
[1]; various incubation times tested, longer or shorter less efficient
  Incubation time optimal for cardiogenesis: 24 h

## Cc1cc(/C=C/c2ccc3cc(N(C)C)ccc3[n+]2C)c(C)n1-c1ccccc1 [Pyrvinium]
[1]
  Ability to induce cardiomyocyte differentiation: did not result in a successful generation of cardiomyocytes

## Cc1cc(-c2ccc(CC(=O)Nc3ccc(-c4cccnc4)cc3)cc2)ccn1 [Wnt-C59, 2-(4-(2-methylpyridin-4-yl)phenyl)-N-(4-(pyridin-3-yl)phenyl)acetamide]
[2]; step c) of differentiation
  Concentrations showing increased cell death: more than 5 μM
[1]; Wnt repressor in step c), tested 1-10 μM
  Optimal concentration for cardiomyocyte differentiation: 2 µM
[1]; Wnt-C59 1-10 μM, step c)
  Effect on cardiomyocytes obtained: significant increase in cardiomyocytes

## CC(C)NCC(O)c1ccc(O)c(O)c1 (centres unmarked) [isoproterenol]
[3]; 3 μM isoproterenol, untreated control 45 beats per minute
  Beating rate: 60 beats per minute
[3]; FIG. 5, xCELLigent analysis
  Effect on beating frequency: increases beating frequency

From patent publication US10155927B2, “Method for differentiation of pluripotent stem cells into cardiomyocytes” (Hoffmann-La Roche Inc., priority 2014, dated 2018)
